Series [1] in a line: Cytotoxicity against African green monkey Vero cells. In kind it is toxicity, cell-based. The following applies: chlorocebus sabaeus, read-out: TC50 (the source's name).
A further series has as its system KB. Description: Antiproliferative activity against human KB cells assessed as reduction in cell viability incubated for 48 hrs by MTT assay. In kind it is functional, cell-based.
The subject of a further series is MCF7. Description: Antiproliferative activity against human MCF7 cells assessed as reduction in cell viability measured after 48 hrs by SRB assay. In kind it is functional, cell-based. The following applies: MCF7, 48 h. (In general: In SRB staining, fixed cells bind dye roughly in proportion to their protein.)
A further series concerns BeWo. Nature of the series: Antiproliferative activity against human BeWo cells assessed as reduction in cell viability after 72 hrs by MTT assay. In kind it is functional, cell-based. In general terms: Tetrazolium assays rely on reduction of a dye to a coloured formazan, in cell work by metabolically active cells.
A further series relates to P388. Description: Antiproliferative activity against mouse P388 cells assessed as cell growth inhibition incubated for 72 hrs by MTT assay. The following applies: P388, 72 h. In kind it is functional, cell-based.
The next series has as its system EL4. Description: Antiproliferative activity against mouse EL4 cells assessed as cell growth inhibition incubated for 72 hrs by MTT assay. In kind it is functional, cell-based. Particulars: EL4, 72 h.
The next series relates to HT-29. Nature of the series: cells. Particulars: Homo sapiens, HT-29, 72 h.
Series [2] relates to Plasmodium falciparum. Description: microbe, parasite or virus in culture. Particulars: K1.
Description: Antiplasmodial activity against Plasmodium falciparum K1 assessed as inhibition of parasitic growth
Series [3] relates to Plasmodium falciparum. Description: Antimalarial activity against Plasmodium falciparum HB3 assessed as inhibition of malarial growth. In kind it is functional, organism-based.
The test system of series [4] is Plasmodium falciparum. Description: Antimalarial activity against Plasmodium falciparum K1 assessed as inhibition of malarial growth. In kind it is functional, organism-based.
The test system of the next series is MDA-MB-231. Description: Antiproliferative activity against human MDA-MB-231 cells assessed as reduction in cell viability measured after 48 hrs by MTT assay. In kind it is functional, cell-based. Particulars: MDA-MB-231, 48 h.
In a further series the test system is A549. Description: cells. The following applies: Homo sapiens, A549, 48 h.
A short description of series [5]: Antiproliferative activity against human BC cells assessed as growth inhibition. In kind it is functional, cell-based.

A value given as a limit tells only on which side of the number the result lay.

The IC50 is the midpoint of a concentration-inhibition curve.

For `CCCCCC[C@@]1(C[C@@H]2C(=O)O[C@H]3O[C@@]4(C)CC[C@H]5[C@H](C)CC[C@@H]2[C@@]35OO4)O[C@H]2O[C@@]3(C)CC[C@H]4[C@H](C)CC[C@@H]([C@H]1C)[C@@]24OO3`, the CC50 in series [1] came out at 2500 nM. For the same compound, the IC50 with KB stood at 4 µM.

For `C[C@H]1[C@@H](CCNC(=O)CC[C@H]2O[C@H]3O[C@@]4(C)CC[C@H]5[C@H](C)CC[C@@H]([C@H]2C)[C@@]35OO4)O[C@H]2O[C@@]3(C)CC[C@H]4[C@H](C)CC[C@@H]1[C@@]24OO3`, the half-inhibitory concentration (IC50) in the series on MCF7 came out at 8 nM; with BeWo, 12.1 µM; in the series on P388 it was 16.8 µM; with EL4 it was 10.1 µM; with HT-29, 1100 nM.

In the case of `C[C@@H]1CC[C@H]2[C@@H](C)C(CCNC(=O)CCC(N)C(=O)NCCC3O[C@H]4O[C@@]5(C)CC[C@H]6[C@H](C)CC[C@@H]([C@H]3C)[C@@]46OO5)O[C@H]3O[C@@]4(C)CC[C@@H]1[C@]32OO4` (stereo partly specified), the IC50 was 20900 nM in the series with MCF7; over 27.3 µM with BeWo; 21.3 µM in the series on P388; 22.5 µM with EL4; 8900 nM with HT-29.

As to `CO[C@@]12[C@H](COC(N)=O)C3=C(C(=O)C(C)=C(N)C3=O)N1C[C@@H]1N[C@@H]12` [MITOMYCIN], the 50% inhibitory concentration (IC50) in the series on MCF7 was 60 nM; in the series with BeWo, 0.06 µM; with P388, 0.06 µM; with EL4, 0.06 µM; with HT-29, 60 nM.

`C[C@@H]1CC[C@H]2[C@@H](C)C(CSCCCCSC3O[C@H]4O[C@@]5(C)CC[C@H]6[C@H](C)CC[C@@H]([C@H]3C)[C@@]46OO5)O[C@H]3O[C@@]4(C)CC[C@@H]1[C@]32OO4` (stereo partly specified) registered an IC50 in the series on Plasmodium falciparum [2] of 5.7 nM.

For the compound `C[C@@H]1CC[C@H]2[C@@H](C)C(CCOC(=O)CCCC(=O)OCCC3O[C@H]4O[C@@]5(C)CC[C@H]6[C@H](C)CC[C@@H]([C@H]3C)[C@@]46OO5)O[C@H]3O[C@@]4(C)CC[C@@H]1[C@]32OO4` (stereo partly specified), the half-inhibitory concentration (IC50) in the series on Plasmodium falciparum [3] came out at 1.1 nM; with Plasmodium falciparum [4], 2.4 nM.

Consider `C[C@@H]1CC[C@H]2[C@@H](C)C(OCCN/C(=N/c3ccc(Cl)cc3)NCCOC3O[C@@H]4O[C@]5(C)CC[C@@H]6[C@@H](C)CC[C@H]([C@@H]3C)[C@]46OO5)O[C@H]3O[C@@]4(C)CC[C@@H]1[C@]32OO4` (stereo partly specified), for which the values for the IC50 in the series with MDA-MB-231, in the series with A549 and in the series with HT-29 were 1260 nM, 980 nM and 100 nM, respectively.

For the compound `C[C@@H]1CC[C@H]2[C@@H](C)C(CCS(=O)(=O)CCC3O[C@@H]4O[C@]5(C)CC[C@@H]6[C@@H](C)CC[C@H]([C@@H]3C)[C@]46OO5)O[C@H]3O[C@@]4(C)CC[C@@H]1[C@]32OO4` (stereo partly specified), the concentration for half-maximal inhibition (IC50) in the series on MCF7 came to 40 nM; with BeWo it was 1.59 µM; in the series on P388 it was 8.55 µM; in the series on EL4, 0.82 µM; in the series on HT-29, 580 nM.

Turning to `C[C@@H]1CC[C@H]2[C@@H](C)C(CCOCc3cccc(COCCC4O[C@H]5O[C@@]6(C)CC[C@H]7[C@H](C)CC[C@@H]([C@H]4C)[C@@]57OO6)c3)O[C@H]3O[C@@]4(C)CC[C@@H]1[C@]32OO4` (stereo partly specified), the values for the IC50 with Plasmodium falciparum [3] and with Plasmodium falciparum [4] were 2.1 nM and 2.7 nM, respectively.

With `C[C@@H]1CC[C@H]2[C@H](C[C@]3(Cc4ccc(F)cc4)O[C@H]4O[C@@]5(C)CC[C@H]6[C@H](C)CC[C@@H]([C@H]3C)[C@@]46OO5)C(=O)O[C@H]3O[C@@]4(C)CC[C@@H]1[C@]32OO4`, the CC50 in [1] stood at 1100 nM. For the same compound, the IC50 in the series with KB was 7.7 µM; in series [5], 7.4 µM.

`C[C@@H]1CC[C@H]2[C@@H](C)C(OCCN/C(=N/c3ccc(Cl)cc3Cl)NCCOC3O[C@@H]4O[C@]5(C)CC[C@@H]6[C@@H](C)CC[C@H]([C@@H]3C)[C@]46OO5)O[C@H]3O[C@@]4(C)CC[C@@H]1[C@]32OO4` (stereo partly specified): the IC50 in the series on MDA-MB-231 turned out to be 2080 nM; in the series on A549, 640 nM; in the series on HT-29 it was 50 nM.

As for `C[C@@H]1CC[C@H]2[C@@H](C)C(OCCN/C(=N/c3ccc(C(F)(F)F)cc3)NCCOC3O[C@@H]4O[C@]5(C)CC[C@@H]6[C@@H](C)CC[C@H]([C@@H]3C)[C@]46OO5)O[C@H]3O[C@@]4(C)CC[C@@H]1[C@]32OO4` (stereo partly specified), the IC50 in the series with MDA-MB-231 was 1180 nM; in the series on A549 it was 680 nM; with HT-29 it was 60 nM.

Take `C[C@@H]1CC[C@H]2[C@@H](C)C(OCCN/C(=N/c3cccc(Br)c3)NCCOC3O[C@@H]4O[C@]5(C)CC[C@@H]6[C@@H](C)CC[C@H]([C@@H]3C)[C@]46OO5)O[C@H]3O[C@@]4(C)CC[C@@H]1[C@]32OO4` (stereo partly specified): the IC50 came to 1570 nM in the series on MDA-MB-231, 360 nM in the series with A549 and 400 nM in the series with HT-29.

On to `C[C@@H]1CC[C@H]2[C@@H](C)C(CCS(=O)(=O)CCCS(=O)(=O)CCC3O[C@@H]4O[C@]5(C)CC[C@@H]6[C@@H](C)CC[C@H]([C@@H]3C)[C@]46OO5)O[C@H]3O[C@@]4(C)CC[C@@H]1[C@]32OO4` (stereo partly specified), for which the IC50 in the series on MCF7 turned out to be 7360 nM; with BeWo, 11.2 µM; in the series on P388 it was 11 µM; in the series with EL4, 13.1 µM; in the series on HT-29, 500 nM.

With `C[C@@H]1CC[C@H]2[C@@H](C)C(OCCN/C(=N/c3ccc(OC(F)(F)F)cc3)NCCOC3O[C@@H]4O[C@]5(C)CC[C@@H]6[C@@H](C)CC[C@H]([C@@H]3C)[C@]46OO5)O[C@H]3O[C@@]4(C)CC[C@@H]1[C@]32OO4` (stereo partly specified), the figures for the IC50 in the series on A549 and in the series with HT-29 were 170 nM and 240 nM, respectively.

Regarding `C[C@@H]1CC[C@H]2[C@@H](C)C(CCOC(=O)CCC(=O)OCCC3O[C@H]4O[C@@]5(C)CC[C@H]6[C@H](C)CC[C@@H]([C@H]3C)[C@@]46OO5)O[C@H]3O[C@@]4(C)CC[C@@H]1[C@]32OO4` (stereo partly specified), the concentration for half-maximal inhibition (IC50) in the series on Plasmodium falciparum [3] stood at 1.4 nM; in the series on Plasmodium falciparum [4] it was 1.8 nM.

In turn, `C[C@@H]1CC[C@H]2[C@@H](C)C(CSCCCCCSCC3O[C@@H]4O[C@]5(C)CC[C@@H]6[C@@H](C)CC[C@H]([C@@H]3C)[C@]46OO5)O[C@H]3O[C@@]4(C)CC[C@@H]1[C@]32OO4` (stereo partly specified) yielded an IC50 in the series on Plasmodium falciparum [2] of 12 nM.

Consider `C[C@@H]1CC[C@H]2[C@@H](C)C(CCOCc3ccccc3COCCC3O[C@H]4O[C@@]5(C)CC[C@H]6[C@H](C)CC[C@@H]([C@H]3C)[C@@]46OO5)O[C@H]3O[C@@]4(C)CC[C@@H]1[C@]32OO4` (stereo partly specified), for which the values for the concentration for half-maximal inhibition (IC50) in the series on Plasmodium falciparum [3] and with Plasmodium falciparum [4] were 1.3 nM and 2.9 nM, respectively.

On to `C[C@H]1[C@@H](CCCCNC(=O)CC[C@H]2O[C@H]3O[C@@]4(C)CC[C@H]5[C@H](C)CC[C@@H]([C@H]2C)[C@@]35OO4)O[C@H]2O[C@@]3(C)CC[C@H]4[C@H](C)CC[C@@H]1[C@@]24OO3`, for which the IC50 in the series on MCF7 is over 30200 nM; in the series on BeWo, over 30.2 µM; with P388, over 30.2 µM; with EL4 it was over 30.2 µM; with HT-29 it was 30500 nM.

`C[C@@H]1CC[C@H]2[C@@H](C)C(CCOC(=O)c3cccc(C(=O)OCCC4O[C@H]5O[C@@]6(C)CC[C@H]7[C@H](C)CC[C@@H]([C@H]4C)[C@@]57OO6)c3)O[C@H]3O[C@@]4(C)CC[C@@H]1[C@]32OO4` (stereo partly specified) came in with a half-maximal inhibitory concentration (IC50) in the series with Plasmodium falciparum [2] of 42.2 nM.

For `C[C@@H]1CC[C@H]2[C@@H](C)C(OCCN/C(=N/c3cc(C(F)(F)F)ccc3F)NCCOC3O[C@@H]4O[C@]5(C)CC[C@@H]6[C@@H](C)CC[C@H]([C@@H]3C)[C@]46OO5)O[C@H]3O[C@@]4(C)CC[C@@H]1[C@]32OO4` (stereo partly specified), the 50% inhibitory concentration (IC50) with MDA-MB-231 was found to be 1420 nM; in the series on A549, 240 nM; with HT-29, 20 nM.

Turning to `C[C@@H]1CC[C@H]2[C@@H](C)C(CCOC(=O)c3ccccc3C(=O)OCCC3O[C@H]4O[C@@]5(C)CC[C@H]6[C@H](C)CC[C@@H]([C@H]3C)[C@@]46OO5)O[C@H]3O[C@@]4(C)CC[C@@H]1[C@]32OO4` (stereo partly specified), the IC50 in the series on Plasmodium falciparum [3] was 1.6 nM; in the series with Plasmodium falciparum [4], 2.6 nM.

`C[C@@H]1CC[C@H]2[C@@H](C)C(CCOC(=O)c3ccc(C(=O)OCCC4O[C@H]5O[C@@]6(C)CC[C@H]7[C@H](C)CC[C@@H]([C@H]4C)[C@@]57OO6)cc3)O[C@H]3O[C@@]4(C)CC[C@@H]1[C@]32OO4` (stereo partly specified) displayed a 50% inhibitory concentration (IC50) with Plasmodium falciparum [2] of 4.6 nM.

Take `C[C@@H]1CC[C@H]2[C@@H](C)C(CSCCSCC3O[C@H]4O[C@@]5(C)CC[C@H]6[C@H](C)CC[C@@H]([C@H]3C)[C@@]46OO5)O[C@H]3O[C@@]4(C)CC[C@@H]1[C@]32OO4` (stereo partly specified): half-maximal inhibition with Plasmodium falciparum [2] (IC50) required 7.4 nM.

Take `C[C@@H]1CC[C@H]2[C@@H](C)C(OCCN/C(=N/c3cccc(Cl)c3)NCCOC3O[C@@H]4O[C@]5(C)CC[C@@H]6[C@@H](C)CC[C@H]([C@@H]3C)[C@]46OO5)O[C@H]3O[C@@]4(C)CC[C@@H]1[C@]32OO4` (stereo partly specified): the IC50 was found to be 1170 nM in the series on MDA-MB-231, 720 nM in the series with A549 and 100 nM with HT-29.

As to `C[C@@H]1CC[C@H]2[C@@H](C)C(CSCCCSCC3O[C@H]4O[C@@]5(C)CC[C@H]6[C@H](C)CC[C@@H]([C@H]3C)[C@@]46OO5)O[C@H]3O[C@@]4(C)CC[C@@H]1[C@]32OO4` (stereo partly specified), the IC50 in the series with Plasmodium falciparum [2] was 13 nM.
